The text below walks through data of publication PMC11241262, “Unravelling the Antifibrinolytic Mechanism of Action of the 1,2,3-Triazole Derivatives” (International Journal of Molecular Sciences, 2024).

Data set [1] deals with whole blood clot formation. In words: Whole blood coagulation assay (clot formation, no exogenous tPA). Details: species or system human. The conditions noted are these: 40 µM, 37 °C, fibrinolysis not triggered. The protocol: Blood was obtained by venipuncture from healthy donors after they signed an informed consent form. Blood was transferred into vacuum non-anticoagulant Vacutainer® tubes (BD, Franklin Lakes, NJ, USA). Blood samples were immediately used for the assay after extraction.
Prior to blood addition, 20 µL of the evaluated compounds was added to glass tubes, in a final concentration of 40 µM. As a control clot, 20 µL of Tris HCl buffer with no compound was used. Next, 800 µL of blood was transferred to each tube followed by casual shaking to ensure proper mixing. Tubes were incubated at 37 °C for 30 min to allow clot formation and posterior lysis. Blood clotting and lysis were visually monitored and photographs were taken after 30 min.

The target of data set [2] is T1, tissue-type plasminogen activator (tPA) (Homo sapiens, UniProt P00750).
T1 construct: purchased abcam
T1 sequence (P00750 36-562): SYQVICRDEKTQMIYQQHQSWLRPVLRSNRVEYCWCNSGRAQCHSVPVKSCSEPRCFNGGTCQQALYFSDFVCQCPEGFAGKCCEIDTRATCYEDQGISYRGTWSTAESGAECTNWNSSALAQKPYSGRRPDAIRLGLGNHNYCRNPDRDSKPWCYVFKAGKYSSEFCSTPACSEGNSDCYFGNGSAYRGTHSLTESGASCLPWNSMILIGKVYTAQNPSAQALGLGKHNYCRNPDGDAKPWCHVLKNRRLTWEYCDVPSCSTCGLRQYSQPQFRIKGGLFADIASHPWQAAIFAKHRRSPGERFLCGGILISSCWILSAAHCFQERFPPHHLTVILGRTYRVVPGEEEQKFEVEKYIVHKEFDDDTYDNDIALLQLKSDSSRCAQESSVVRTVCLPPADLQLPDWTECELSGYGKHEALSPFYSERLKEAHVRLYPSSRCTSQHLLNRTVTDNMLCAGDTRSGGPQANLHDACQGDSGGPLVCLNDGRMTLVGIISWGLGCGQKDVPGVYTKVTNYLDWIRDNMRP
In words: tPA activity assay (chromogenic substrate). It is filed as biochemical. The protocol:
Tris hydrochloride, 1M, pH = 7.5 solution (Thermo Fisher Scientific, Waltham, MA, USA) was used as buffer. […] Recombinant human Tissue Plasminogen Activator (abcam, Cambridge, UK) served as the source of tPA, and was stored at −20 °C until used.
The assay measures the inhibition of tPA’s catalytic domain by the tested compounds employing a chromogenic substrate. Different concentrations of the studied molecules were incubated with tPA in a 96-well plate at 37 °C for 10 min. […] After, 20 μL of tPA’s substrate was added to each well. […] The slope for each assay was obtained from the initial and final absorbance values and their respective time points, or until complete substrate cleavage was achieved. (3) Absorbance slope=Abs2−Abs1/t2−t1
The Relative tPA Inhibition for each condition was calculated using Equation (2). Then, the Relative tPA Activity (%) was calculated by subtracting the relative tPA inhibition of each concentration from the total activity of the enzyme, obtained from a control without a compound.

Data set [3] is described as follows: Maximum solubility in plasmin assay. It is filed as physicochemical. The conditions noted are these: Tris HCl buffer (plasmin activity assay solution), pH 7.5.
The target in a further data set is T2, plasminogen (Homo sapiens, UniProt P00747).
T2 construct: purchased abcam
T2 sequence (P00747 20-810 limits assumed): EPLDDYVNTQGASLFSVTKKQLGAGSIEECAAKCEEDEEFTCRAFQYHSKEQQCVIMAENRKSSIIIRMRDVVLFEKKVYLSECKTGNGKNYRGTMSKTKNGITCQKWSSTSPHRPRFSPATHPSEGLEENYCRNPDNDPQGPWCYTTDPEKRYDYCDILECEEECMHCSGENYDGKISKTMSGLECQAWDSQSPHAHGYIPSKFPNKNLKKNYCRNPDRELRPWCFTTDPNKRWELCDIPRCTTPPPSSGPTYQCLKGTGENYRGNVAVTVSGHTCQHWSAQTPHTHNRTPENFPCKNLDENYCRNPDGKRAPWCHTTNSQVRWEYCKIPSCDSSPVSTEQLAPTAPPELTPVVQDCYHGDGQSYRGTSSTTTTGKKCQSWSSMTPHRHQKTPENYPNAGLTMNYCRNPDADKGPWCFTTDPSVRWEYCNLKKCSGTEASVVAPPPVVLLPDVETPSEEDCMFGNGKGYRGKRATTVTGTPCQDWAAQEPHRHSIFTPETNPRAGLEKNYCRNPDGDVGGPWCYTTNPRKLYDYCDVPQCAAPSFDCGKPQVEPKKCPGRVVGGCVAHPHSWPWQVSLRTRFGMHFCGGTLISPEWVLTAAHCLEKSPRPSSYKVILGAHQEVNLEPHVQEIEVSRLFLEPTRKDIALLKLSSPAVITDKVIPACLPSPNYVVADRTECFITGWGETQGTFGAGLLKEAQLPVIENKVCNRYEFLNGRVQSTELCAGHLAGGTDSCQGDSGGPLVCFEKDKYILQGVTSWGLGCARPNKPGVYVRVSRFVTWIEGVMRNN
In words: Plasminogen activation assay (conversion of plasminogen into plasmin by tPA in the absence of fibrin). It is filed as biochemical. As to the method: The conversion rate of plasminogen to plasmin was assessed using the Tissue-Type Plasminogen Activator Activity Assay Kit (abcam), following the manufacturer’s instructions. The assay measures the ability of tPA to activate plasminogen to plasmin in the presence of the tested compounds using a chromogenic substrate.
A solution of plasminogen and plasmin substrate was mixed with a previously prepared solution of the studied compound and tPA in Tris HCl buffer in a 96-well plate. The final concentration of tPA in each well was 6.8 µg/mL, in a final volume of 100 µL. Absorbance was measured on a microplate reader at a wavelength of 405 nm every minute at 37 °C for 2 h or until the system reached saturation. The absorbance slope of each sample was determined using Equation (3). The Relative Plasminogen Activation (%) for each condition was calculated with Equation (4), using a control without a compound (enzyme control). (4) Relative Plasminogen Activation (%)=SlopeCompound−SlopeControl/SlopeControl×100
Values were fitted to a linear model using MATLAB R2023a (The Math Works Inc., Natick, MA, USA). Concentrations at which each compound was able to increase plasminogen’s conversion by 50% in comparison to the enzyme control were extracted and compared for the three molecules.

Values after ≈ are worked out from the molar mass of the structure shown.

A word on the solubility: it is how much of the substance goes into solution per volume.

On to `O=c1[nH]nc(-c2cn(C3CCNCC3)nn2)o1` [compound 5], for which the “effect on clot formation” value in data set [1] is reported as “do not have any effect”. Further, the “percentage of tPA's activity” value in data set [2] (0.5 mM) is listed as 93.70%; in data set [2] (1 mM) it was 91.18%; in data set [2] (5 mM) it was 88.78%; in data set [2] (10 mM), 89.39%; in data set [2] (15 mM), 103.70%. Besides, the “activity on tPA's active site” value in data set [2] (at the tested concentrations) was “no activity”. The molecule further showed a solubility in data set [3] of 20 mM (≈ 4720 µg/mL). The “potency relative to TXA in catalyzing plasminogen's activation by tPA” value at plasminogen (from concentration enhancing tPA's activity by 50%) is on record as “more than 50 times”. The “concentration at which compound increased tPA's activity by 50%” value at plasminogen (plasminogen-tPA isolated system, absence of fibrin) is 4.03 µM.
